Test results as given in paper PMC12040169 (PLOS Biology, 2025).

Test: in vitro
Conditions: human, hela cells, % viability

Compound | viability at 28.5 h, 10 µM | viability at 28.5 h, 10 µM (bulk resorufin, single well)
CS(=O)(=O)c1sc(C(=O)NC(=S)Nc2cccc(C(F)(F)F)c2)c2c1C=CCC2 [CBK005654] | 96.9% | –
C[S+]([O-])c1sc(Cl)c2c1C(=O)CCC2 (centres unmarked) [CBK005657] | 104% | –
CC(=O)c1ccc2c3c(cccc13)CC(N(C)C)C2 (centres unmarked) [CBK005691S] | 95.8% | –
O=S(=O)(NCCCN1CCOCC1)c1cc(C(F)(F)F)cc(C(F)(F)F)c1 [CBK005796] | 91% | –
CC(C)(C)c1nc(COc2ccc3nonc3c2)no1 [CBK005831] | 91.8% | –
S=c1nc[nH]cc1-c1ccc(Br)cc1 [CBK005833] | 87.6% | –
COC(=O)CCCCCSc1nc2ccc(O)c([N+](=O)[O-])c2s1 [CBK005867] | 106% | –
CCOc1ccc2nc(SCCN3CCOCC3)sc2c1 [CBK005888] | 89.6% | –
Nc1nccc(-c2cc(OCC(F)(F)F)ccc2OCC(F)(F)F)n1 [CBK005948] | 94.6% | –
O=C(Nc1nccc(-c2cc(OCC(F)(F)F)ccc2OCC(F)(F)F)n1)c1cccs1 [CBK005949] | 95.5% | –
Cc1c(C#N)sc(-c2nc[nH]n2)c1C [CBK005952] | 77.6% | –
CSc1sc(C(=O)CC#N)c2c1C=CCC2 [CBK006004] | 91% | –
Nc1cc(O)n(Cc2ccco2)c(=S)n1 [CBK006010] | 99.9% | –
CCOC(=O)c1cc2c(CNc3ccc(OC)nc3)cccc2o1 [CBK006086] | 91.7% | –
O=C(c1cccs1)n1ccc(-c2ccc3c(c2)CCO3)n1 [CBK006090] | 97.6% | –
CC1(C)C=Cc2cc(/C(N)=N/O)ccc2O1 [CBK006095] | 96.2% | –
O=C(Nc1ccc(C(F)(F)F)cc1)C1CCCS1 (centres unmarked) [CBK006142] | 92.5% | –
S=C(Nc1ccccc1)N1CCCCC1CN1CCCCC1 (centres unmarked) [CBK006196] | 112% | –
COC(=O)c1sc(-c2ccsc2)cc1N [CBK006256] | 91.8% | –
COCCCNC(=S)N/N=C/c1ccco1 [CBK006272] | 104% | –
CSCC(O)Cn1nc(O)cc(C)c1=O (centres unmarked) [CBK006293] | 105% | –
CSc1cc(-c2cccs2)[nH]c(=O)c1C#N [CBK006350] | 79.7% | –
CSc1c(C#N)c(-c2cc(C(C)(C)C)on2)nn1C [CBK006360] | 96.4% | –
COc1cc(C(F)(F)F)c(-c2ncn[nH]2)cn1 [CBK006362] | 101% | –
O=C(Cc1nn[nH]n1)Nc1ccc(F)c(Cl)c1 [CBK006384] | 95.4% | –

Compound | viability at 28.5 h, 10 µM | viability at 28.5 h, 10 µM (bulk resorufin, single well)
CCCc1cc(=O)[nH]c(SCc2noc(-c3snnc3C)n2)n1 [CBK006474] | 87.4% | –
Fc1cccc(Cl)c1CN1CNC(=S)NC1 [CBK006480] | 88.7% | –
CC1(C)[C@H]2CC/C(=N/O)[C@]1(C)NC2=O [CBK006513] | 84.8% | –
COc1cc(OC)c2nc(C(F)(F)F)cc(Cl)c2c1 [CBK006518] | 83.1% | –
O=C(O)c1nn(-c2ccccc2)c2cc([N+](=O)[O-])ccc12 [CBK006532] | 95% | –
COC(=O)CC1(C)C(=O)CCC2(C)C1=CCc1ccccc12 (centres unmarked) [CBK006547] | 105% | –
O=C1CC(Cl)Sc2sc3ccccc3c21 (centres unmarked) [CBK006551] | 86.6% | –
COC(=O)Cc1c(O)nn(C)c1Cc1cccc(C(F)(F)F)c1 [CBK006608] | 99.5% | –
O=C1C[C@H]2[C@H](CC3(SCCS3)[C@@H]2CO)O1 [CBK006615] | 90.2% | –
Nc1ncnc(Nc2cc(C(F)(F)F)cc(C(F)(F)F)c2)n1 [CBK006617] | 86.8% | –
C/C(=N\N=C1/NC(=O)C(CC(=O)O)S1)c1ccc(CC(C)C)cc1 (centres unmarked) [CBK006661] | 93.5% | –
C#CCOC(=O)NC(=O)c1csnn1 [CBK006685] | 114% | –
CC(=O)CSc1nsc(SCC(C)=O)n1 [CBK006702] | 89.6% | –
C1C/C(=N/N=C2\CCCc3nonc32)c2nonc2C1 [CBK006721] | 93.9% | –
O=[N+]([O-])c1ccc(Sc2ccccc2C2=NCCCN2)nc1 [CBK006747C] | 101% | –
Brc1cccc(NN=C2CCCC2)n1 [CBK006748] | 85.3% | –
OC12CCCON1OC(c1ccccc1)C2 (centres unmarked) [CBK006752] | 111% | –
O=C1NN=C(CSCCO)Oc2ccccc21 [CBK006771] | 88.5% | –
CC(=O)c1sc(=S)n(N(C)C)c1C [CBK006774] | 91.6% | –
CCN(CC)C1=NC(=S)N(C)C(c2ccc(OC)cc2)S1 (centres unmarked) [CBK006804] | 99.3% | –
COc1cc(C2CC(=O)N(c3cc(C)on3)C(=O)C2)cc(OC)c1OC [CBK006810] | 109% | –
Cc1nn(-c2ccccc2)c2sncc12 [CBK006869] | 109% | –
c1ccc(C2=NN=C(N3CCOCC3)SC2)cc1 [CBK006876G] | 97.3% | –
NNC(=O)CSc1nnc2ccc(C(F)(F)F)cn12 [CBK006897] | 90.3% | –
O=C(O)c1cc(Sc2nnnn2-c2ccccc2)c2ccccc2c1O [CBK006925] | 87.8% | –

Compound | viability at 28.5 h, 10 µM | viability at 28.5 h, 10 µM (bulk resorufin, single well)
COc1ccc(C)cc1N1CCCN(c2cc(C)ccc2OC)C1=O [CBK006937] | 84.8% | –
O=C(CCCC(=O)N1CCCC1)N1CCCC1 [CBK006992] | 108% | –
CCOC(=O)c1ccoc1C[N+](C)(CC)CC [CBK007022I] | 83.7% | –
CC(=O)OC(C(=O)N1CCCCCC1)c1ccc(Br)cc1 (centres unmarked) [CBK007027] | 109% | –
CNS(=O)(=O)N1CCN(S(=O)(=O)NC)CC1 [CBK007064] | 93.7% | –
CCCC1NCCn2cccc21 (centres unmarked) [CBK007074F] | 85.6% | –
S=C1NCCN1c1nnc(-c2cccs2)[nH]1 [CBK007096] | 97.3% | –
O=C(c1cc(Br)cc2c1OCC2)N1CCCCC1 [CBK007109] | 91.8% | –
CCOC(=O)c1nc(C)sc1-c1ccnn1S(C)(=O)=O [CBK007130] | 108% | –
Cc1ccc(NC(=S)N2CCCC2C(=O)O)c(C)c1 (centres unmarked) [CBK007148] | 79.3% | –
CCCCCn1c(O)nnc1SCc1csc(CS(=O)(=O)c2ccc(Cl)cc2)n1 [CBK007176] | 80.7% | –
COc1ccc(OCCN2C(=O)CNC2=S)cc1 [CBK007177] | 77% | –
CC(C)(C)Oc1nc(=O)[nH]c(=O)[nH]1 [CBK007194] | 98.3% | –
CC(=O)N1c2ccccc2N(C(C)=O)C1c1ccc(C2N(C(C)=O)c3ccccc3N2C(C)=O)[nH]1 [CBK007216] | 110% | –
CC(=O)N1c2ccccc2C(C)=CC1C1CCCC(=O)C1 (centres unmarked) [CBK007219] | 101% | –
O/N=C1\CSCc2ncccc21 [CBK007234] | 90.1% | –
FC(F)(F)c1cnc(Sc2c[nH]nn2)c(Cl)c1 [CBK007252] | 93.3% | –
Cc1ccc(O)cc1CC[C@@H]1CC(=O)CC2(C)C1CC[C@]2(O)C(=O)COC(=O)CCC(=O)O (some centres unmarked) [CBK007270] | 119% | –
COc1ccc(C2CNC(=O)N2C(=O)OC(C)(C)C)cc1OC1CCCC1 (centres unmarked) [CBK007281] | 93.8% | –
CCN1CCCC1CNc1c(Cl)c(Cl)nc2c1c(=O)n(C)c(=O)n2C (centres unmarked) [CBK007287] | 97.2% | –
CCOC(=O)c1c(NC(=O)CSc2nnnn2C)sc2c1CCCC2 [CBK007332] | 103% | –
C(=N\Nc1nnnn1-c1ccccc1)/c1ccco1 [CBK007334] | 109% | –
CC(C)(C)NC(=O)N1CCC(=O)N1 [CBK007341] | 95.9% | –
N#Cc1c(-c2ccccc2)noc1C/C=N/O [CBK007357] | 87.7% | –
CCOC(=O)c1cnc2nc(N3CCOCC3)nn2c1N [CBK007371] | 96.2% | –

Compound | viability at 28.5 h, 10 µM | viability at 28.5 h, 10 µM (bulk resorufin, single well)
COc1ccc(C(=O)NCC(=O)NCCOC(=O)c2c(-c3c(F)cccc3Cl)noc2C)cc1 [CBK007386] | 99.4% | –
Cn1nc(C(F)(F)F)c(C#N)c1Oc1ccc(C(C)(C)C)cc1 [CBK007398] | 95.7% | –
COC(=O)C1ON2CCCCC2C1(O)C(F)(F)F (centres unmarked) [CBK007430] | 90.6% | –
Oc1noc(O)c1-c1ncc(C(F)(F)F)cc1Cl [CBK007439] | 91.1% | –
CCOCCC(=O)N/N=C(/C)c1ccc(Cl)s1 [CBK007454] | 94.8% | –
CCCc1c(OCCCCc2nnn[nH]2)ccc(C(C)=O)c1O [CBK007468] | 90.4% | –
CN(CC#CCN1CCCC1)C(=O)CNC(=O)OC(C)(C)C [CBK007489] | 111% | –
c1coc(-c2nc3n(n2)CCS3)c1 [CBK007565] | 84.7% | –
OC(COc1cccc2ccccc12)CN1CCN(C(c2ccccc2)c2ccccc2)CC1 (centres unmarked) [CBK007591] | 93.1% | –
COc1cc(C(=O)N2CCN(c3cc(C(C)C)ccc(CO)c3=O)CC2)cc(OC)c1OC [CBK007673] | 91% | –
COc1cccc2c1OCCC2CNCCCc1ccccc1 (centres unmarked) [CBK007716] | – | 91.8%
CCC(C)(C)N1CC(=O)N=C1NCCc1ccc(S(N)(=O)=O)cc1 [CBK007750] | 89.6% | –
Nc1cccnc1OCCN1CCN(CC(=O)N2CCCCc3ccccc32)CC1 [CBK007764] | 95.1% | –
Cn1c(N2CCOCC2)cc(=O)c2ccccc21 [CBK007775] | 93.7% | –
CC1(C)CC(=O)C2=C(C1)OC(=O)CC2c1ccc(Cl)cc1Cl (centres unmarked) [CBK007777] | 93.8% | –
CCCN1C[C@@H](O)C[C@H]2[C@H](O)[C@@H]1c1ccccc1N2C(=O)OC [CBK007809] | 91.8% | –
O=c1cc(CN2CCOCC2)oc2c(OCc3nnnn3C3CC3)cccc12 [CBK007813] | 101% | –
CC(C)=NOc1ncccc1C#N [CBK007841] | 115% | –
CC(C)Nc1cccnc1N1CCN(C(=O)c2cc3cc(NC(=O)N4CCOCC4)ccc3[nH]2)CC1 [CBK007872] | 96.2% | –
CN1CCCc2c1oc1c(OCc3cccnc3)cccc1c2=O [CBK007904] | 92.1% | –
COc1cc(=O)n(C)c(C)n1 [CBK007924] | 91% | –
C[C@@H]1C(=O)Nc2ccc(F)cc2N1C(=O)N1CCCC1 [CBK007936] | 96% | –
CN(C)C1Cc2cccc3nc(S(C)(=O)=O)n(c23)C1 (centres unmarked) [CBK007942] | 94.8% | –
